These are literature values, as cited in patent US20080207644A1, “Therapeutic materials and methods” (priority 2006, published 2008).

For series [1] the following is noted: 30 mg/kg oral.
In series [2] the test system is cancers. Particulars: for mouth sores as side effect: human studies; for results in human studies: single agents or combinations, treatment of a variety of cancers.
Series [3] relates to a variety of malignancies. The following applies: intravenous 0.7 to 1.3 mg/m^2/dose biweekly.
For series [4] the following is noted: oral doses of 10-100 mg/kg.

As for `COc1cccc2nc(-c3cccs3)nc(NN3C(=O)CC(C)C3=O)c12` (stereo not drawn) [SPC-839], the “oral efficacy in a rat model” value in series [1] was “oral efficacy”.

Consider `CO[C@H]1C[C@@H]2CC[C@@H](C)[C@@](O)(O2)C(=O)C(=O)N2CCCC[C@H]2C(=O)O[C@H]([C@H](C)C[C@@H]2CC[C@@H](OCCO)[C@H](OC)C2)CC(=O)[C@H](C)/C=C(\C)[C@@H](O)[C@@H](OC)C(=O)[C@H](C)C[C@H](C)/C=C/C=C/C=C/1C` [everolimus], for which, in series [2], the “mouth sores as side effect” value was “dose limiting toxicity” and the “results in human studies” value is given as “positive results”.

For the compound `CO[C@H]1C[C@@H]2CC[C@@H](C)[C@@](O)(O2)C(=O)C(=O)N2CCCC[C@H]2C(=O)O[C@H]([C@H](C)C[C@@H]2CC[C@@H](OC(=O)C(C)(CO)CO)[C@H](OC)C2)CC(=O)[C@H](C)/C=C(\C)[C@@H](O)[C@@H](OC)C(=O)[C@H](C)C[C@H](C)/C=C/C=C/C=C/1C` [temsirolimus], in series [2], the “mouth sores as side effect” value is on record as “dose limiting toxicity” and the “results in human studies” value is on record as “positive results”.

In the case of `CO[C@H]1C[C@@H]2CC[C@@H](C)[C@@](O)(O2)C(=O)C(=O)N2CCCC[C@H]2C(=O)O[C@H]([C@H](C)C[C@@H]2CC[C@@H](OP(C)(C)=O)[C@H](OC)C2)CC(=O)[C@H](C)/C=C(\C)[C@@H](O)[C@@H](OC)C(=O)[C@H](C)C[C@H](C)/C=C/C=C/C=C/1C` [AP23573], in series [2], the “mouth sores as side effect” value is listed as “dose limiting toxicity” and the “results in human studies” value is “positive results”.

On to `CC(C)C[C@H](NC(=O)[C@H](Cc1ccccc1)NC(=O)c1cnccn1)B(O)O` [Velcade], for which the activity against malignancies entry in series [3] is “activities against a variety of malignancies”.

As to `Cc1ccc2nc(NCCN)c3ncc(C)n3c2c1` [BMS-345541], in series [4], the “efficacy in mouse studies” value is listed as “effective”.
